Reference: patent US9896421B2, “Compound having skin-whitening, anti-oxidizing and PPAR activities and medical use thereof” (Pusan National University Industry-University Cooperation …, priority 2011, dated 2018)
“Also recorded” adds a separate entry of the source.

What was measured:
PPAR alpha-LBD = target: T1, PPAR alpha-LBD (Homo sapiens, UniProt Q07869); format: binding; details: sample final concentration 100 M (so in the source); compared with fenofibrate (positive control); FIG. 7
T1 construct: 10 μl of 4×PPAR alpha-LBD/Tb-anti-GST antibody
T1 sequence (Q07869 239-466 limits assumed): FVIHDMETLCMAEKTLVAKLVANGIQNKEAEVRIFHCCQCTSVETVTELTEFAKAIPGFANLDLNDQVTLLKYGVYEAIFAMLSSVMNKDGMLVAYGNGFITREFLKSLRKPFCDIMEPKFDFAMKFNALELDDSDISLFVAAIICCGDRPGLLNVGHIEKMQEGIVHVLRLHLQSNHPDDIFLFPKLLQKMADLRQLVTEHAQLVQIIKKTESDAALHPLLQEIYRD

PPAR gamma-LBD = target: T2, PPAR gamma-LBD (Homo sapiens, UniProt P37231); assay: PPAR gamma assay (fluormone Pan-PPAR green competition, Tb-anti-GST antibody); format: binding; details: sample final concentration 100 M (so in the source); compared with rosiglitazone (positive control); FIG. 8
T2 construct: 10 μl of 4×PPAR gamma-LBD/Tb-anti-GST antibody
T2 sequence (P37231 238-503 limits assumed): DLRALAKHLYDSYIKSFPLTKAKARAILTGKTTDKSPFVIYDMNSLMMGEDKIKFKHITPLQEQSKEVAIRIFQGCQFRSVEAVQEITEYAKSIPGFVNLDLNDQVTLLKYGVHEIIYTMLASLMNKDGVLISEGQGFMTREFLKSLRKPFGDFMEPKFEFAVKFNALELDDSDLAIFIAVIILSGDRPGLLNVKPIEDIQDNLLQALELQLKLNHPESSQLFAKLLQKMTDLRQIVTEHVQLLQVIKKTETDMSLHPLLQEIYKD
Method: 20 μl of a sample and 10 μl of 4× fluormone Pan-PPAR green were spread onto 384 well plates, and 10 μl of 4×PPAR alpha-LBD/Tb-anti-GST antibody or 10 μl of 4×PPAR gamma-LBD/Tb-anti-GST antibody were respectively used in PPAR alpha assay and PPAR gamma assay. In this regard, a sample compound was dissolved in such an amount of DMSO that made a final concentration of the sample to be 100 µM, and the DMSO final concentration was maintained within 1%. The reaction mixture was left at room temperature for 2 to 6 hours, and then, the absorption thereof was measured by using a microplate reader (Hewlett Packard) at an excitation wavelength of 340 nm and at an emission wavelength of 485 nm, and at an exitation wavelength of 340 nm and an emission wavelength of 520 nm to calculate a value of 520 nm/485 nm. In this regard, if a negative control was assumed to have an absorption value of 100, a competitive activation rate was defined as follows: 100 minus an absorption value of each sample. That is, the competitive activation rate indicates a binding ratio of the respective samples with respect to the negative control. […]

[1] = test system: ROS generated by vascular endothelial cells (YPEN-1); assay: In vitro ROS scavenging activity assay (DCFDA) in YPEN-1 vascular endothelial cells; format: cell-based, rat; details: YPEN-1 cells pre-treated with 50 μM SIN-1 for 1 hour; DCFDA fluorescence; compared with trolox (positive control); FIGS. 1 to 3
Method: YPEN-1 cells (rat prostatic endothelial cell line) was obtained from American type culture collection (ATCC, Manassas, Va., USA), and the cells were cultured by using a dulbecco's modified eagle medium (DMEM, Nissui, Tokyo, Japan) containing 2 mM L-glutamine, […], 2.5 mg/L amphotericin B, and 5% inactivated fetal bovine serum (FBS). Also, the cells were maintained at a temperature of 37° C. in a humid atmosphere-like condition containing 5% CO2 and 95% air. […] The cells were sub-cultured in 100 mm plastic flask (Corning Co., New York, USA) every two days to maintain the cell line.
Since the oil-soluble DCFDA was deacetylated into non-fluorescent DCFH due to esterase or oxidative hydrolysis and the DCFH was oxidized due to activity oxgyen to produce highly-fluorescent 2′,7′-dichlorofluorescein (DCF), the present measurement was performed at an excitation wavelength of 485 nm and an emission wavelength of 530 nm by using a fluorophotometer (GENios, TECAN). Vascular endothelial cells that were pre-treated with 50 μM 3-morpholinosydnonimine hydrochloride (SIN-1) for 1 hour were used as a reactive oxygen generation source.

male Balb/c mouse = assay: Toxicity test, single oral administration; format: in vivo; details: single oral dose 0.5, 1 and 2 g/kg in 0.5% methylcellulose, observed 7 days
Method: A suspension of each of Compound 3, Compound 15, Compound 50, Compound 85, Compound 93, and Compound 115 in a 0.5% methylcellulose solution was orally administered once to a male Balb/c mouse in dosages of 0.5 g/kg, 1 g/kg, and 2 g/kg, and then the survival rate and body weight of the mouse was recorded for 7 days.
After the administration, whether the mouse died, clinical symptoms occurred, and body weight changed were identified and hematologic examination and blood biochemical examination were performed, and autopsy was performed to identify with naked eyes states of abdominal cavity organs and thoracic cavity organs.

[2] = test system: Mushroom-derived tyrosinase; assay: Tyrosinase inhibitory effect; format: biochemical; details: 1 mM L-tyrosin, pH 6.5, 25° C., 30 minutes, OD492; compared with kojic acid (positive control); FIGS. 4 to 6
Method: Mushroom-derived tyrosinase was sued as an enzyme source in the present experiment. Tyrosinase activities were assayed according to a slightly-modified conventionally known method (Life Sci., 1999, 65, 241-246). In detail, 20 μl of a mushroom-derived tyrosinase (1000 units) aqueous solution was added to 96-well microplate (Nunc, Denmark) to prepare 200 μl of the total volume of assay mixture containing 1 mM L-tyrosin solution and 50 mM phosphate buffer solution (pH 6.5). The assay mixture was cultured at a temperature of 25° C. for 30 minutes. After the culturing, an amount of the produced DOPA chrome in the reaction mixture was measured by using a microplate reader (Hewlett Packard) at 492 nm (OD492).

SMILES | PPARα activities (competitive activation rate) (PPAR alpha-LBD) | PPARγ activities (competitive activation rate) (PPAR gamma-LBD) | melting point [°C] | scavenging effects on ROS generated by vascular endothelial cells [1] | death and clinical symptoms (male Balb/c mouse) | toxicity change (body weight change, hematologic examination, blood biochemical examination, autopsy) (male Balb/c mouse) | tyrosinase inhibitory activities [2]
CC(=O)Oc1ccc(/C=C2\N=C(C)OC2=O)c(O)c1 [Compound 85, (Z)-3-hydroxy-4-((2-methyl-5-oxooxazol-4(5H)-ylidene)methyl)phenyl acetate] | very excellent PPARα activation agent compared to fenofibrate; also recorded: simultaneously activates PPARα and PPARγ | simultaneously activates PPARα and PPARγ |  |  |  |  | 
O=C1NC(=O)/C(=C/c2ccc(O)c(O)c2)S1 [Compound 2, (Z)-5-(3,4-dihydroxybenzylidene)thiazolidine-2,4-dione] |  |  | > 300 | as high scavenging effects on ROS generated by vascular endothelial cells as trolox |  |  | 
O=C1NC(=O)/C(=C/c2ccc(O)cc2O)S1 [Compound 3, (Z)-5-(2,4-dihydroxybenzylidene)thiazolidine-2,4-dione] |  |  |  |  | neither had distinctive clinical symptoms nor died | toxicity change was not identified | better tyrosinase inhibitory activities than a kojic acid
O=C1NC(=O)C(=Cc2ccc(O)c(O)c2)C(=O)N1 [Compound 15, 5-(3,4-dihydroxybenzylidene)pyrimidine-2,4,6(1H,3H,5H)-trione] |  |  |  | as high scavenging effects on ROS generated by vascular endothelial cells as trolox | neither had distinctive clinical symptoms nor died | toxicity change was not identified | better tyrosinase inhibitory activities than a kojic acid
O=C1NC(=S)N/C1=C\c1cc(O)cc(O)c1 [Compound 106, (Z)-5-(3,5-dihydroxybenzylidene)-2-thioxoimidazolidin-4-one] |  |  | > 300 | as high scavenging effects on ROS generated by vascular endothelial cells as trolox |  |  | 
CC1=N/C(=C\c2ccccc2O)C(=O)O1 [Compound 93, (Z)-4-(2-hydroxybenzylidene)-2-methyloxazol-5(4H)-one] | very excellent PPARα activation agent compared to fenofibrate; also recorded: simultaneously activates PPARα and PPARγ | simultaneously activates PPARα and PPARγ |  |  |  |  | 
O=C1NC(=S)NC(=O)C1=Cc1ccc(O)c(O)c1 [Compound 50, 5-(3,4-dihydroxybenzylidene)-2-thioxodihydropyrimidine-4,6(1H,5H)-dione] |  |  |  | as high scavenging effects on ROS generated by vascular endothelial cells as trolox | neither had distinctive clinical symptoms nor died | toxicity change was not identified | better tyrosinase inhibitory activities than a kojic acid
